Data on ten molecules can be found in article PMC10461462, “A critical inter‐subunit interaction for the transmission of the allosteric signal in the Agrobacterium tumefaciens ADP‐glucose pyrophosphorylase” (Protein Science : A Publication of the Protein Society, 2023).

The target of series [1] is Agrobacterium tumefaciens ADP-glucose pyrophosphorylase mutant R11K (Agrobacterium tumefaciens) (UniProt P39669). Kind of series: SEC. For orientation: SEC sorts molecules by how far they enter the pores of the column.
For series [2], the target named is Agrobacterium tumefaciens ADP-glucose pyrophosphorylase mutant D141E (Agrobacterium tumefaciens) (UniProt P39669). The series can be described thus: SEC.
The target of the next series is T1, R11D/D141R (Agrobacterium tumefaciens, UniProt P39669, D141R/R11D).
T1 construct: gene glgC; His-tagged, from pBLH1/pBHL1 derivative, expressed in E. coli BL21(DE3); homotetramer
Kind of series: Activator saturation of ADP-Glc synthesis (PPi converted to phosphate, Malachite Green) in 50 mM HEPES pH 7.5, 7 mM MgCl2, 1.5 mM Glc1P, 1.5 mM ATP; modified Hill fit. The series is classed as biochemical. The following applies: n = 2; read-out: A0.5. On the procedure: (§1) This condition was considered “saturating concentrations” of substrate. To analyze the effect of the activators in “sub‐saturating concentrations” of substrate, the concentration of ATP was 0.2 mM.
(§2) Table S1 . Kinetic parameters for the activators of the A. tumefaciens ADP -Glc PPase wild type, and mutants.
(§3) a Assays were performed as described in Materials and Methods under “activator saturation assay”.
(§4) b Activation fold is calculated by dividing the maximum velocity (Vm) by the velocity in the absence of activator (V0).

Series [3] concerns the target T2, D141A (Agrobacterium tumefaciens, UniProt P39669, D141A).
T2 construct: gene glgC; His-tagged, from pBLH1/pBHL1 derivative, expressed in E. coli BL21(DE3); homotetramer
The series is described as above. The series is classed as biochemical. The following applies: n = 2; read-out: A0.5. How it is done: as §1, §2, §3, §4

The target of series [4] is T3, D141N (Agrobacterium tumefaciens, UniProt P39669, D141N).
T3 construct: gene glgC; His-tagged, from pBLH1/pBHL1 derivative, expressed in E. coli BL21(DE3); homotetramer
The series is described as above. The series is classed as biochemical. The following applies: n = 2; read-out: A0.5. How it is done:
as §1, §2, §3, §4

In a further series the target is T4, D141E (Agrobacterium tumefaciens, UniProt P39669, D141E).
T4 construct: gene glgC; His-tagged, from pBLH1/pBHL1 derivative, expressed in E. coli BL21(DE3); homotetramer
The series is described as above. The series is classed as biochemical. The following applies: n = 2. On the procedure:
as §1, §2, §3, §4

For a further series, the target named is T5, R11K (Agrobacterium tumefaciens, UniProt P39669, R11K).
T5 construct: gene glgC; His-tagged, from pBLH1/pBHL1 derivative, expressed in E. coli BL21(DE3); homotetramer
The series is described as above. The series is classed as biochemical. The following applies: n = 2. How it is done: as §1, §2, §3, §4

Series [5] addresses T6, WT (Agrobacterium tumefaciens, UniProt P39669).
T6 construct: gene glgC; His-tagged, from pBLH1/pBHL1 (pET28c derivative), expressed in E. coli BL21(DE3); homotetramer
T6 sequence (P39669 1-420): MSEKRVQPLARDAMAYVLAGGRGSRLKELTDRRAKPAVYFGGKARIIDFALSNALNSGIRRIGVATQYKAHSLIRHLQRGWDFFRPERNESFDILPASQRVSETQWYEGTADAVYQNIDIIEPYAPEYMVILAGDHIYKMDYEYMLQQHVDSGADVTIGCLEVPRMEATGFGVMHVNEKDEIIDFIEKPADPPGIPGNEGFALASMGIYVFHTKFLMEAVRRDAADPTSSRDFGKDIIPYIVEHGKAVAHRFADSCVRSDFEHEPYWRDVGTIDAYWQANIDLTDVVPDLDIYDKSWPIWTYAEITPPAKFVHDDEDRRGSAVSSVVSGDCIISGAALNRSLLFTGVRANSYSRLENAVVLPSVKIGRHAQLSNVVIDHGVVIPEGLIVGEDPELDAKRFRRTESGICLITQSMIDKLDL
The series is described as above. The series is classed as biochemical. The following applies: n = 2; read-out: A0.5. How it is done:
as §1, §2, §3, §4

The next series has as its system T7, R11A.
T7 construct: values from literature (Gomez-Casati et al., 2001)
The description is as above. The series is classed as biochemical. The following applies: n = 2; read-out: A0.5; cited from earlier work. More on the design: method as in values quoted from other papers. How it is done:
as §1, §2, §3, §4

For series [6], the target named is T2, D141A. Kind of series: Activator saturation of ADP-Glc synthesis (Malachite Green) at pH 7.5 with 1.5 mM Glc1P and 4 mM ATP; modified Hill fit. The series is classed as biochemical. The following applies: n = 2; read-out: A0.5. How it is done:
as §1
(§5) The assays were performed as described in Materials and Methods in the presence of 4 mM ATP.
(§6) (1 picture or pasted object on this page, not shown here)

The next series deals with T8, R11D (Agrobacterium tumefaciens, UniProt P39669, R11D).
T8 construct: gene glgC; His-tagged, from pBLH1/pBHL1 derivative, expressed in E. coli BL21(DE3); homotetramer
The series can be described thus: Thermal shift assay (SYPRO Orange) with varied ligand concentration in 50 mM HEPES pH 8.0, 0.02 mg/mL protein, 25-95 C; Tm versus log ligand concentration fitted to obtain Kd. The series is classed as binding. The following applies: n = 3. On the procedure: (§7) We used thermal shift assays to find whether the effect of the mutation was on the ability of Fru6P/Pyr either to bind or activate the enzyme. Activators of ADP‐Glc PPase bind to the enzyme and stabilize it from thermal denaturation (Bhayani & Ballicora, [2022]).
(§8) Thermal shift assays were performed as described (Hill et al., [2019]) using the QuantStudio™ 3 Real‐Time PCR System (Thermo Fisher Scientific) and QuantStudio™ Design and Analysis Software v1.5.1. The final volume for the assay was 20 μL and contained 50 mM HEPES (pH 8.0), SYPRO Orange Dye (Sigma‐Aldrich) (4×) and 0.02 mg/mL purified protein, in the absence or presence of 5 mM Fru6P, and 5 mM Pyr. A control with no protein was also performed for all the samples. A continuous temperature increases from 25.0 to 95.0°C was scanned at a ramp increment of 0.1°C per second. Scans were run in triplicates and averaged. The unfolding temperatures (T m ) of the proteins were measured using the minimum of the third derivative of the scanned fluorescence vs. temperature (d^3F/dT^3) (Bhayani & Ballicora, [2022]).
(§9) Thermal Shift assays were used to study the relationship between the melting temperature ( Tm ) of a protein and the logarithm of the ligand concentration using the following equation (Bhayani & Ballicora, [2022]). y=Tm0+Alog101+10^x/Kd.
(§10) In this equation, y is Tm , and x is the logarithm of the ligand concentration. […] The data was fitted to an equation using Origin™ 2017 and the Levenberg–Marquardt algorithm, to find the optimum parameters Tm0 , A , and Kd (Bhayani & Ballicora, [2022]). To ensure robustness and reliability, all thermal shift assays were conducted in triplicate.

In series [7] the target is T6, WT. The series is described as above. The following applies: n = 3. The series is classed as binding. How it is done:
as §7, §8, §9, §10

The target in series [8] is Agrobacterium tumefaciens ADP-glucose pyrophosphorylase mutant R11D (Agrobacterium tumefaciens) (UniProt P39669). Kind of series: SEC.
Series [9] concerns the target Agrobacterium tumefaciens ADP-glucose pyrophosphorylase double mutant R11D/D141R (Agrobacterium tumefaciens) (UniProt P39669). Kind of series: SEC.
Series [10] addresses T3, D141N. The series can be described thus: Effector saturation of ADP-Glc synthesis (Malachite Green) at pH 7.5 with 1.5 mM Glc1P and 4 mM ATP, effector inhibiting instead of activating; modified Hill fit. The series is classed as biochemical. The following applies: n = 2; read-out: A0.5 (mM), footnote: I0.5. On the procedure: as §1, §5, §6
For series [11], the target named is Agrobacterium tumefaciens ADP-glucose pyrophosphorylase mutant D141N (Agrobacterium tumefaciens) (UniProt P39669). The series can be described thus: SEC.
In series [12] the target is Agrobacterium tumefaciens ADP-glucose pyrophosphorylase mutant D141A (Agrobacterium tumefaciens) (UniProt P39669). The series can be described thus: SEC.
In series [13] the target is Agrobacterium tumefaciens ADP-glucose pyrophosphorylase mutant D141R (Agrobacterium tumefaciens) (UniProt P39669). Kind of series: SEC.
The series “SEC” concerns the molecule itself. The series can be described thus: SEC.

Read-outs that look alike come from different tables or passages of the source.

Take “Agrobacterium tumefaciens ADP-glucose pyrophosphorylase mutant R11K (from UniProt P39669) (enzyme)”: in [1], the stoichiometry N (usually the number of molecules, sites or subunits per partner or assembly) came to 4.

Molecule “Agrobacterium tumefaciens ADP-glucose pyrophosphorylase mutant D141E (from UniProt P39669) (enzyme)” displayed a stoichiometry N in series [2] of 4.

Regarding `O=P(O)(O)OC[C@H]1OC(O)(CO)[C@@H](O)[C@@H]1O` (some centres unmarked) [Fru6P, fructose 6-phosphate], the EC50 was 1320 µM at R11D/D141R; 840 µM on D141A [3]; 2970 µM at D141N [4]; 30 µM at D141E (read-out: A0.5); 50 µM on R11K; 340 µM on WT [5]. The EC50 is 30 µM in the series with R11A and 500 µM at D141A [6]. Besides, the equilibrium dissociation constant (Kd) (as a rule, the concentration at which binding is half-saturated) at R11D is 1820 µM; at WT [7], 1510 µM.

On to “Agrobacterium tumefaciens ADP-glucose pyrophosphorylase mutant R11D (from UniProt P39669) (enzyme)”, for which the stoichiometry N in series [8] was found to be 4.

In series [9], “Agrobacterium tumefaciens ADP-glucose pyrophosphorylase double mutant R11D/D141R (from UniProt P39669) (enzyme)” displayed a stoichiometry N of 4.

On to `CC(=O)C(=O)O` [Pyr, pyruvate], for which the IC50 at D141N [10] was found to be 0.075 mM. The EC50 at D141A [3] was 300 µM; at D141E it was 60 µM; on R11K, 40 µM; at WT [5], 450 µM; on D141A [6], 49 µM. The Kd at R11D stood at 54 µM; at WT [7], 233 µM.

Molecule “Agrobacterium tumefaciens ADP-glucose pyrophosphorylase mutant D141N (from UniProt P39669) (enzyme)” yielded a stoichiometry N in series [11] of 4.

On to “Agrobacterium tumefaciens ADP-glucose pyrophosphorylase mutant D141A (from UniProt P39669) (enzyme)”, for which, in [12], the stoichiometry N was found to be 4.

“Agrobacterium tumefaciens ADP-glucose pyrophosphorylase mutant D141R (from UniProt P39669) (enzyme)” came in with a stoichiometry N in series [13] of 2.

B1: Agrobacterium tumefaciens ADP-glucose pyrophosphorylase wild type (enzyme)
chain: T6 sequence (P39669 1-420)
notes: ADP-glucose pyrophosphorylase (EC 2.7.7.27) of Agrobacterium tumefaciens, ~50 kDa subunit, encoded by plasmid pBHL1 (pET28c derivative) of Hill et al., 2019; also called ADP-Glc PPase; WT; source: E. coli BL21 (DE3), purified (His-Trap FF Ni2+ column, Superdex 200 gel filtration)
As to B1, in “SEC”, the “stoichiometry N” value was 4.
